{
  "source": "BindingDB's records for doi:10.1021/acs.biochem.6b01025",
  "about": "(Washington College, 2017)",
  "key": {"[1]": {"target": "T1, Tyrosine-protein phosphatase non-receptor type 1 [1-301] (Homo sapiens, UniProt P18031)", "T1 construct": "1-301", "T1 sequence (P18031 whole entry)": "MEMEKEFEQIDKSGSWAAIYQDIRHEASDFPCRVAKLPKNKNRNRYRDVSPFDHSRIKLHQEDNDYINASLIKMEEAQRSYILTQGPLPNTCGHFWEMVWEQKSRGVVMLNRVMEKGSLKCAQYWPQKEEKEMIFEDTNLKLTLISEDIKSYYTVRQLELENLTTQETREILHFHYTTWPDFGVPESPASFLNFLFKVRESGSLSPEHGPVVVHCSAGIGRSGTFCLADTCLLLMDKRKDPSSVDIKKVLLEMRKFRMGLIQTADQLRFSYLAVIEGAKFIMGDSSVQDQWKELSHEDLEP", "experiment": "PTP1B Inhibition Assay", "description": "Kinetic parameters were determined by fitting the reaction rates to different inhibition models as a function of the inhibitor and pNPP concentrations using GraphPad Prism version 6.0d. The total reaction volume in all cases was 500 μL, and the temperature was maintained at 25 °C using a water-regulated cuvette holder."}, "[2]": {"target": "T1, Tyrosine-protein phosphatase non-receptor type 1 [1-301]", "experiment": "NMR Chemical Shift Titration Assay"}},
  "data": [
    {"smiles": "O=C(/C=C/c1ccc(O)c(O)c1)O[C@@H](C(=O)O)[C@@H](OC(=O)/C=C/c1ccc(O)c(O)c1)C(=O)O", "note": "[Cichoric acid (CHA)]", "values": [
      {"measurement": "Ki", "setting": "[1]", "result": 1400, "unit": "µM"},
      {"measurement": "Kd", "setting": "[2]", "result": 1600, "unit": "µM"}
    ]}
  ]
}
